target: T1, NLRP3 inflammasome (Homo sapiens, UniProt Q96P20); test: IL-1β secretion assay (NLRP3 IC50) in LPS-primed, nigericin-activated THP-1 cells, HTRF; format: cell-based; settings: monocytic THP-1 cells; LPS 10 ng/mL 3 h priming, then compound + nigericin 10 μM 2 h; relative IC50, 10 concentrations, geometric mean
T1 construct: endogenous in cells; host or cells: THP-1 monocytic cells
Method: Monocytic THP-1 cells were maintained in RPMI 1640 media (Gibco 21875)+10% FBS, (Gibco 10500)+1% penicillin/streptomycin (Gibco 15140-122). Cells were then plated at 40,000 cells per well in 384-well cell culture plates (CoRNning 3542) and maintained with RPMI1640 (Gibco 11835)+5% FBS (Gibco 10500). Activation of the NLRP3 inflammasome requires both an NF-kB-dependent priming step and the addition of a NLRP3 activator. The priming step was induced by LPS (10 ng/mL, InvivoGen ref tlrl-3pelps) for 3 h at 37° C., then compound, in a 1:3 serial dilution series in DMSO (final concentration DMSO 0.1%), and the activator nigericin (Sigma Aldrich, ref: SML1779) 10 μM (final concentration) were added to the cells and co-incubated for 2 hours. 16 μL supernatant was removed, and IL-1β levels were monitored using an HTRF assay (Human IL1b Kits HTRF Cisbio ref: 62HILBPEH) according to manufacturers' instructions.
Data were expressed as percentage of inhibition (I %) as compared to a maximum signal control containing no small molecule (I %=0%) according to the formula: 1%=(1−((Sample−Min))/((Max−Min)))×100, where: • Sample: Signal obtained in the presence of each compound tested, • Max: Maximum signal in the absence of compound added, • Min: Minimum or background signal obtained in the absence of activation signal.
Relative IC50 (IC50 rel) were obtained from a dose response curve with 10 concentrations. Final IC50 rels are expressed as the geometric mean.
Relative IC50 values were estimated with Biost@t-SPEED v2.4 internal software based on SAS system using the 4-parameter logistic model according to Ratkovsky and Reedy (D. A. Ratkovsky, T. J. Reedy, Choosing near-linear parameters in the four parameters logistic model radioligands and related assays. Biometrics, 42 (1986), 575-582): Y=A+C/((1+exp(−B*(log(X)−M)))), where: • A: Lower asymptote (BOTTOM), • A+C: Upper asymptote (TOP), • M: the logarithm of the concentration estimated at the inflexion point (the logarithm of the relative IC50), • B: Slope at the inflexion point of the curve.

T1 sequence (Q96P20 whole entry): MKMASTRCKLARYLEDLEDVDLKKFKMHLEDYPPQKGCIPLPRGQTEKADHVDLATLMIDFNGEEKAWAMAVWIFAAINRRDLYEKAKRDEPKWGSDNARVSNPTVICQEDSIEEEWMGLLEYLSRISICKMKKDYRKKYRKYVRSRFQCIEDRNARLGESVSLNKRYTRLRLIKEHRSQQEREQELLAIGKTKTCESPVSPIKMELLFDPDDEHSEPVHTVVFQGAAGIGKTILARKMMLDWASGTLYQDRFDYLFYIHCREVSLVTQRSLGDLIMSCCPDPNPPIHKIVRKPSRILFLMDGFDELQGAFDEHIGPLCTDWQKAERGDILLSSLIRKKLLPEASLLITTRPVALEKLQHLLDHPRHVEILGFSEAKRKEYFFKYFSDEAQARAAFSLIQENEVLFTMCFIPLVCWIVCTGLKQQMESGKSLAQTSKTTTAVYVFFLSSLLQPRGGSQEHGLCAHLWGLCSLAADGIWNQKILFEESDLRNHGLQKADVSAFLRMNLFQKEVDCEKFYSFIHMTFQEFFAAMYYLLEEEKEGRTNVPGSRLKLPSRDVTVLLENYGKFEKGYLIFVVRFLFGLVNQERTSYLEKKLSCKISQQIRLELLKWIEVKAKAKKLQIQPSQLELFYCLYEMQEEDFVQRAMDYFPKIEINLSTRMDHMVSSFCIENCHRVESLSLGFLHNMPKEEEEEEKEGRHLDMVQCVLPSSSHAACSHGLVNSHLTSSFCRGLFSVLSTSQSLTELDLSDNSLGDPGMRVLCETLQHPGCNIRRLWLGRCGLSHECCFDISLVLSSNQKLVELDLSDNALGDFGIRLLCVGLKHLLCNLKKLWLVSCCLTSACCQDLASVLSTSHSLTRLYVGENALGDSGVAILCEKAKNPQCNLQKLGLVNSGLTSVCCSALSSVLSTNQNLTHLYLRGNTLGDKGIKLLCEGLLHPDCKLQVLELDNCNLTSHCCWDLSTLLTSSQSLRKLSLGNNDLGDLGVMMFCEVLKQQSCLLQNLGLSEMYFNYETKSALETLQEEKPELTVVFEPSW

Structure (SMILES)	IC50
CCc1cc(Cl)cc(O)c1-c1ccc(N2CC[C@H]3CCN(C)C[C@H]32)nn1 (single isomer, unassigned) [Example 493]	171 nM
Cc1cc(C)c(-c2ccc(N3C[C@@H](O)CO3)nn2)c(O)c1 [Example 113, (4R)-2-[6-(2-hydroxy-4,6-dimethyl-phenyl)pyridazin-3-yl]isoxazolidin-4-ol]	857 nM
Cc1cc(C)c(-c2ccc(N3CCO[C@@H]4CCOC[C@@H]43)nn2)c(O)c1 (racemic) [Example 403, 3,5-dimethyl-2-[6-[rac-(4aS,8aR)-3,4a,5,7,8,8a-hexahydro-2H-pyrano[4,3-b][1,4]oxazin-4-yl]pyridazin-3-yl]phenol]	366 nM
Cc1cc(C)c(-c2ccc(N3CCC[C@@H]4CCNC(=O)[C@@H]43)nn2)c(O)c1 (racemic) [Example 300, rac-(4aR,8aR)-1-[6-(2-hydroxy-4,6-dimethyl-phenyl)pyridazin-3-yl]-2,3,4,4a,5,6,7,8a-octahydro-1,7-naphthyridin-8-one]	177 nM
CCN1CC[C@H]2CCN(c3cc(C(F)F)c(-c4ccc(C(F)(F)F)cc4O)nn3)[C@H]2C1 (single isomer, unassigned) [Example 486]	< 0.3 nM
Cc1cc(C)c(-c2ccc(N3CCOc4cnccc43)nn2)c(O)c1 [Example 215, 2-[6-(2,3-dihydropyrido[3,4-b][1,4]oxazin-1-yl)pyridazin-3-yl]-3,5-dimethyl-phenol]	1460 nM
Cc1cc(C)c(-c2ccc(N3CCO[C@H](C(N)=O)C3)nn2)c(O)c1 [Example 181, (2S)-4-[6-(2-hydroxy-4,6-dimethylphenyl)pyridazin-3-yl]morpholine-2-carboxamide]	1390 nM
Cc1cc(C)c(-c2ccc(N3CCO[C@@H](C(C)O)C3)nn2)c(O)c1 (single isomer, unassigned) [Example 108]	545 nM
CN1CC[C@H]2OCCN(c3cc(C(F)F)c(-c4cccc(F)c4O)nn3)[C@H]2C1 [Example 351, 2-[6-[(4aS,8aR)-6-methyl-3,4a,5,7,8,8a-hexahydro-2H-pyrido[4,3-b][1,4]oxazin-4-yl]-4-(difluoromethyl)pyridazin-3-yl]-6-fluoro-phenol]	167 nM
Cc1cc(C(F)(F)F)cc(O)c1-c1ccc(N2CCO[C@@H]3CN(C)C[C@H]32)nn1 (racemic) [Example 289, 3-methyl-2-[6-[rac-(4aR,7aR)-6-methyl-2,3,4a,5,7,7a-hexahydropyrrolo[3,4-b][1,4]oxazin-4-yl]pyridazin-3-yl]-5-(trifluoromethyl)phenol]	140 nM
Cc1cc(C)c(-c2ccc(N3CCO[C@@H](C4(N)CC4)C3)nn2)c(O)c1 (single isomer, unassigned) [Example 136]	3030 nM
CCN1CCN(c2ccc(-c3c(C)cc(C)cc3O)nn2)CC12CCOC2 (centres unmarked) [Example 227, 2-[6-(6-ethyl-2-oxa-6,9-diazaspiro[4.5]decan-9-yl)pyridazin-3-yl]-3,5-dimethylphenol]	1190 nM
CCN1CC[C@H]2OCCN(c3cc(C)c(-c4ccc(F)cc4O)nn3)[C@H]2C1 [Example 479, 2-[6-[(4aS,8aR)-6-ethyl-3,4a,5,7,8,8a-hexahydro-2H-pyrido[4,3-b][1,4]oxazin-4-yl]-4-methyl-pyridazin-3-yl]-5-fluoro-phenol]	5 nM
CN(C)C[C@H]1CCCN(c2ccc(-c3c(O)cc(Cl)cc3Cl)nn2)C1 [Example 50, 3,5-dichloro-2-[6-[(3R)-3-[(dimethylamino)methyl]-1-piperidyl]pyridazin-3-yl]phenol]	549 nM
Cc1cc(C)c(-c2ccc(N3C4CCC3COC4)nn2)c(O)c1 [Example 120, 3,5-dimethyl-2-[6-(3-oxa-8-azabicyclo[3.2.1]octan-8-yl)pyridazin-3-yl]phenol]	2520 nM
Cc1cc(C(F)(F)F)cc(O)c1-c1ccc(N2CC[C@@H]3CCN(C)C[C@H]32)nn1 (racemic) [Example 364, 2-[6-[rac-(3aS,7aS)-6-methyl-3,3a,4,5,7,7a-hexahydro-2H-pyrrolo[2,3-c]pyridin-1-yl]pyridazin-3-yl]-3-methyl-5-(trifluoromethyl)phenol]	858 nM
Cc1cc(C(F)(F)F)cc(O)c1-c1ccc(N2CC[C@@H]3CN(C)C[C@@H]32)nn1 (single isomer, unassigned) [Example 271]	690 nM
CC(=O)N1C[C@@H]2OCCN(c3ccc(-c4c(C)cc(C(F)(F)F)cc4O)nn3)[C@@H]2C1 (single isomer, unassigned) [Example 348]	199 nM

Structure (SMILES)	IC50
CC(=O)N1CC[C@H]2CCN(c3ccc(-c4c(C)cc(C)cc4O)nn3)[C@H]2C1 (single isomer, unassigned) [Example 413]	500 nM
CCc1cc(C(F)(F)F)cc(O)c1-c1ccc(N2CC[C@@H]3CCN(C)C[C@@H]32)nn1 (racemic) [Example 452, 2-[6-[rac-(3aS,7aR)-6-methyl-3,3a,4,5,7,7a-hexahydro-2H-pyrrolo[2,3-c]pyridin-1-yl]pyridazin-3-yl]-3-ethyl-5-(trifluoromethyl)phenol]	5 nM
CCN1CC[C@@H]2CCN(c3cc(C(F)F)c(-c4ccc(C)cc4O)nn3)[C@@H]2C1 (single isomer, unassigned) [Example 489]	232 nM
Cc1cc(O)c(-c2ccc(N3CCO[C@H](CO)C3)nn2)c(C(F)(F)F)c1 [Example 509, 2-[6-[(2S)-2-(hydroxymethyl)morpholin-4-yl]pyridazin-3-yl]-5-methyl-3-(trifluoromethyl)phenol]	16 nM
Cc1cc(C)c(-c2ccc(N3CCCC34CCCN(C)C4)nn2)c(O)c1 (centres unmarked) [Example 428, 3,5-dimethyl-2-[6-(9-methyl-1,9-diazaspiro[4.5]decan-1-yl)pyridazin-3-yl]phenol]	1020 nM
Cc1cc(C(F)(F)F)cc(O)c1-c1ccc(N2CCO[C@@H](CF)C2)nn1 (single isomer, unassigned) [Example 283]	135 nM
Cc1cc(C)c(-c2cc(C)c(N3CCO[C@H](CO)C3)nn2)c(O)c1 [Example 109, 2-[6-[(2S)-2-(hydroxymethyl)morpholin-4-yl]-5-methyl-pyridazin-3-yl]-3,5-dimethyl-phenol]	89 nM
Cc1cc(C)c(-c2ccc(N3CCC(C#N)CC3)nn2)c(O)c1 [Example 2, 1-[6-(2-hydroxy-4,6-dimethyl-phenyl)pyridazin-3-yl]piperidine-4-carbonitrile]	1960 nM
Cc1cc(C)c(-c2ccc(N3CCO[C@H]4CCN(C)C[C@H]43)nn2)c(O)c1 [Example 310, 2-[6-[(4aR,8aS)-6-methyl-3,4a,5,7,8,8a-hexahydro-2H-pyrido[4,3-b][1,4]oxazin-4-yl]pyridazin-3-yl]-3,5-dimethyl-phenol]	496 nM
Cc1cc(C(F)(F)F)cc(O)c1-c1ccc(N2CCO[C@@H]3CCN(C)C[C@H]32)nn1 (single isomer, unassigned) [Example 301]	868 nM
Cc1cc(C)c(-c2ccc(N3CC[C@H]3CO)nn2)c(O)c1 [Example 115, 2-[6-[(2S)-2-(hydroxymethyl)azetidin-1-yl]pyridazin-3-yl]-3,5-dimethyl-phenol]	1540 nM
Cc1cc(C(F)(F)F)cc(O)c1-c1ccc(N2CCO[C@@H]3CN(C)C[C@@H]32)nn1 (single isomer, unassigned) [Example 334]	73 nM
CCc1cc(N2CCO[C@@H]3CCN(C)C[C@@H]32)nnc1-c1ccc(C)cc1O [Example 470, 2-[6-[(4aS,8aR)-6-methyl-3,4a,5,7,8,8a-hexahydro-2H-pyrido[4,3-b][1,4]oxazin-4-yl]-4-ethyl-pyridazin-3-yl]-5-methyl-phenol]	0.38 nM
Cc1ccc(-c2nnc(N3CCO[C@@H]4CCN(C(C)C)C[C@@H]43)cc2C)c(O)c1 [Example 472, 2-[6-[(4aS,8aR)-6-isopropyl-3,4a,5,7,8,8a-hexahydro-2H-pyrido[4,3-b][1,4]oxazin-4-yl]-4-methyl-pyridazin-3-yl]-5-methyl-phenol]	1 nM
CC(=O)NC1CC2(CCN(c3ccc(-c4c(O)cc(Cl)cc4Cl)nn3)CC2)C1 [Example 47, N-[7-[6-(2,4-dichloro-6-hydroxy-phenyl)pyridazin-3-yl]-7-azaspiro[3.5]nonan-2-yl]acetamide]	1040 nM
CCN1CC[C@@H]2CCN(c3cc(C)c(-c4ccc(C)cc4O)nn3)[C@@H]2C1 (single isomer, unassigned) [Example 474]	< 0.3 nM
Cc1cc(C)c(-c2cc(C(F)F)c(N3CC[C@@H]4CCN(C)C[C@@H]43)nn2)c(O)c1 (single isomer, unassigned) [Example 488]	912 nM
